Assay results as given in patent publication US12257243B2, “5-hydroxy-7-oxabicyclo[2.2.1]heptane-2-carboxamide derivatives for inducing chondrogenesis for treating joint damage” (NOVARTIS AG, priority 2018, dated 2025).
Where two headings read alike, the source gives them in different places.

Tested on: ALP in normal human articular chondrocytes (NHACs)
Test: Alkaline Phosphatase (ALP) activity assay (staining and quantitation) in NHACs, prevention of chondrocyte hypertrophy
Assay type: cell-based
Conditions: human IL-1 beta 10 ng/mL, 12 days; for IC50: Fast Blue RR staining, high content imaging, read-out: ALP in NHAC IC50; for Emax: read-out: ALP in NHAC (% Efficacy)
How it was run: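 Hypertrophy readout: ALP staining (Fast Blue RR with naphthol AS-MX phosphate) plus Hoechst, imaged at 561 nm and/or quantified by high-content multiwavelength cell scoring. Before staining, NHACs (7,500/well, DMEM/10% FBS) were exposed to compound for 5 h, then cultured with 10 ng/mL IL-1β for 12 days at 37 °C.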

[1] = Chondrocyte, 288 h, value in parentheses

Row | Compound | IC50 (Chondrocyte, 288 h) [µM] | Emax [1] [%] | IC50 [µM] | ALP in NHAC (% Efficacy) (value in parentheses) [%]
1 | Cn1cc([C@H]2[C@H]3O[C@H](C[C@@H]3O)[C@@H]2C(=O)Nc2ccc(C(F)(F)F)c(Cl)c2)c(C(F)(F)F)n1 (racemic) [Example 58, rac-(1R,2R,3S,4R,5S)—N-(3-chloro-4-(trifluoromethyl)phenyl)-5-hydroxy-3-(1-methyl-3-(trifluoromethyl)-1H-pyrazol-4-yl)-7-oxabicyclo[2.2.1]heptane-2-carboxamide] | 10 | 102 | – | –
2 | O=C(Nc1cc(C(F)(F)F)ccc1F)[C@@H]1[C@@H](c2cccc(C(F)(F)F)c2)[C@H]2O[C@@H]1C[C@@H]2O (racemic) [Example 1, rac-(1R,2R,3S,4R,5S)—N-(2-fluoro-5-(trifluoromethyl)phenyl)-5-hydroxy-3-(3-(trifluoromethylphenyl)-7-oxabicyclo[2.2.1]heptane-2-carboxamide] | 29 | 60 | – | –
3 | Cc1ccc(NC(=O)[C@@H]2[C@@H](c3cc(C(F)(F)F)nn3C)[C@H]3O[C@@H]2C[C@@H]3O)cc1C(F)(F)F (racemic) [Example 60, rac-(1R,2R,3S,4R,5S)-5-hydroxy-3-(1-methyl-3-(trifluoromethyl)-1H-pyrazol-5-yl)-N-(4-methyl-3-(trifluoromethyl)phenyl)-7-oxabicyclo[2.2.1]heptane-2-carboxamide] | 13 | 81 | – | –
4 | COc1cc([C@H]2[C@H]3O[C@H](C[C@@H]3O)[C@@H]2C(=O)Nc2cccc(C(F)(F)F)c2)ccn1 (racemic) [Example 70, rac-(1R,2R,3S,4R,5S)-5-hydroxy-3-(2-methoxypyridin-4-yl)-N-(3-(trifluoromethyl)phenyl)-7-oxabicyclo[2.2.1]heptane-2-carboxamide] | > 30 | 13 | – | –
5 | Cc1cc(NC(=O)[C@@H]2[C@@H](c3cn(C(C)C)nc3C(F)(F)F)[C@H]3O[C@@H]2C[C@@H]3O)cc(C(F)(F)F)c1 (racemic) [Example 88, rac-(1R,2R,3S,4R,5S)-5-hydroxy-3-(1-isopropyl-3-(trifluoromethyl)-1H-pyrazol-4-yl)-N-(3-methyl-5-(trifluoromethyl)phenyl)-7-oxabicyclo[2.2.1]heptane-2-carboxamide] | > 30 | 20 | – | –
6 | Cc1cc(C(F)(F)F)cc(NC(=O)[C@@H]2[C@@H](c3cn(C)nc3C(F)(F)F)[C@H]3O[C@@H]2C[C@@H]3O)n1 (racemic) [Example 41, rac-(1R,2R,3S,4R,5S)-5-hydroxy-3-(1-methyl-3-(trifluoromethyl)-1H-pyrazol-4-yl)-N-(6-methyl-4-(trifluoromethyl)pyridin-2-yl)-7-oxabicyclo[2.2.1]heptane-2-carboxamide] | 6.3 | 61 | – | –
7 | O=C(Nc1cc(C(F)(F)F)cc(C2CC2)n1)[C@@H]1[C@@H](c2cccc(C(F)(F)F)c2)[C@H]2O[C@@H]1C[C@@H]2O (racemic) [Example 7, rac-(1R,2R,3S,4R 5S)—N-(6-cyclopropyl-4-(trifluoromethyl)pyridin-2-yl)-5-hydroxy-3-(3-(trifluoromethyl)phenyl)-7-oxabicyclo[2.2.1]heptane-2-carboxamide] | > 30 | 12 | – | –
8 | Cn1cc([C@H]2[C@H]3O[C@H](C[C@@H]3O)[C@@H]2C(=O)Nc2ccc(N3CCOCC3)c(C(F)(F)F)c2)c(C(F)(F)F)n1 (racemic) [Example 37, rac-(1R,2R,3S,4R,5S)-5-hydroxy-3-(1-methyl-3-(trifluoromethyl)-1H-pyrazol-4-yl)-N-(4-morpholino-3-(trifluoromethyl)phenyl)-7-oxabicyclo[2.2.1]heptane-2-carboxamide] | > 30 | 45 | – | –
9 | O=C(Nc1ccc(C(F)(F)F)c(Cl)c1)[C@@H]1[C@@H](c2cccc(C(F)(F)F)c2)[C@H]2O[C@@H]1C[C@@H]2O (racemic) [Example 2, rac-(1R,2R,3S,4R,5S)—N-(3-chloro-4-(trifluoromethylphenyl)-5-hydroxy-3-(3-(trifluoromethyl)phenyl)-7-oxabicyclo[2.2.1]heptane-2-carboxamide] | 8.4 | 102 | – | –
10 | O=C(Nc1cc(C(F)(F)F)ccn1)[C@@H]1[C@@H](c2cccc(C(F)(F)F)c2)[C@H]2O[C@@H]1C[C@@H]2O (racemic) [Example 4, rac-(1R,2R,3S,4R,5S)-5-hydroxy-3-(3-trifluoromethyl)phenyl)-N-(4-(trifluoromethyl)pyridin-2-yl)-7-oxabicyclo[2.2.1]heptane-2-carboxamide] | 7.1 | 90 | – | –
11 | CC(C)n1cc([C@H]2[C@H]3O[C@H](C[C@@H]3O)[C@@H]2C(=O)Nc2cc(C(F)(F)F)ccn2)c(C(F)(F)F)n1 (racemic) [Example 86, rac-(1R,2R,3S,4R,5S)-5-hydroxy-3-(1-isopropyl-3-(trifluoromethyl)-1H-pyrazol-4-yl)-N-(4-(trifluoromethyl)pyridin-2-yl)-7-oxabicyclo[2.2.1]heptane-2-carboxamide] | 11 | 83 | – | –
12 | O=C(Nc1cccc(C(F)(F)F)c1F)[C@@H]1[C@@H](c2cccc(C(F)(F)F)c2)[C@H]2O[C@@H]1C[C@@H]2O (racemic) [Example 15, rac-(1R,2R,3S,4R,5S)—N-(2-fluoro-3-(trifluoromethyl)phenyl)-5-hydroxy-3-(3-(trifluoromethyl)phenyl)-7-oxabicyclo[2.2.1]heptane-2-carboxamide] | 7 | 105 | – | –
13 | Cn1cc([C@H]2[C@H]3O[C@H](C[C@@H]3O)[C@@H]2C(=O)Nc2cccc(C(F)(F)F)c2)c(C(F)(F)F)n1 (single isomer, unassigned) [Example 32b, (1R,2R,3S,4R,5S)-5-hydroxy-3-(1-methyl-3-(trifluoromethyl)-1H-pyrazol-4-yl)-N-(3-(trifluoromethyl)phenyl)-7-oxabicyclo[2.2.1]heptane-2-carboxamide or (1S,2S,3R,4S,5R)-5-hydroxy-3-(1-methyl-3-(trifluoromethyl)-1H-pyrazol-4-yl)-N-(3-(trifluoromethyl)phenyl)-7-oxabicyclo[2.2.1]heptane-2-carboxamide] | – | – | 16 | 109
14 | O=C(Nc1ccc(C(F)(F)F)nc1)[C@@H]1[C@@H](c2cccc(C(F)(F)F)c2)[C@H]2O[C@@H]1C[C@@H]2O (racemic) [Example 27, rac-(1R,2R,3S,4R,5S)-5-hydroxy-3-(3-(trifluoromethyl)phenyl)-N-(6-(trifluoromethyl)pyridin-3-yl)-7-oxabicyclo[2.2.1]heptane-2-carboxamide] | > 30 | 38 | – | –
15 | CCOc1cc(C(F)(F)F)cc(NC(=O)[C@@H]2[C@@H](c3cn(C)nc3C(F)(F)F)[C@H]3O[C@@H]2C[C@@H]3O)n1 (racemic) [Example 39, rac-(1R,2R,3S,4R,5S)—N-(6-ethoxy-4-(trifluoromethyl)pyridin-2-yl)-5-hydroxy-3-(1-methyl-3-(trifluoromethyl)-1H-pyrazol-4-yl)-7-oxabicyclo[2.2.1]heptane-2-carboxamide] | 4 | 64 | – | –
16 | O=C(Nc1cccc(C(F)(F)F)c1)[C@@H]1[C@@H](c2ccc(C(F)(F)F)nc2)[C@H]2O[C@@H]1C[C@@H]2O (racemic) [Example 82, rac-(1R,2R,3S,4R,5S)-5-hydroxy-N-(3-(trifluoromethyl)phenyl)-3-(6-(trifluoromethyl)pyridin-3-yl)-7-oxabicyclo[2.2.1]heptane-2-carboxamide] | 4.6 | 78 | – | –
